In patent publication US20210128680A1, “METHOD FOR TREATING CARDIOPULMONARY DISORDER” (Chang Gung University, priority 2019, published 2021):
Entries after “also recorded” stand apart in the source; their conditions may differ.

What was measured:
MCT PASMCs [1] = experiment: BrdU incorporation cell proliferation assay, MCT PASMCs; type: cell-based, rat; conditions: FIG. 5 panel B
Experimental: (§1) PASMCs were isolated from lungs of MCT-treated or control rats using the explant method, as described previously (Lai Y J et al. Am J Respir Crit Care Med. 2008, 178(2):188-96). To culture PASMCs, the PA was dissected from lung and cardiac tissues. The pulmonary arterial tissue was cut into small pieces and suspended in Dulbecco's modified Eagle's medium (DMEM) (Gibco) containing 100 U/mL penicillin, 100 µg/mL streptomycin (Gibco), and 20% fetal bovine serum (FBS) (Gibco). We observed a decrease in desmin, a smooth muscle cell gene marker, at passage 3. Therefore, rat PASMCs were used before passage 3 for all of the in vitro experiments. Characterization of PASMCs was performed by immunocytochemical staining with anti-α-SM-actin (Sigma-Aldrich) and anti-desmin (NeoMakers) antibodies.
(§2) The proliferative activity of PASMCs and the effects of the lumikine were determined by an ELISA-based 5-bromo-2-deoxyuridine (BrdU) incorporation assay kit (Roche Diagnostics Co.) according to the manufacturer's instructions.
(§3) Proliferation of PASMC is critical to the development of PAH. To characterize whether lumikine affected the proliferation of PASMCs in PAH and non-PAH subjects, the PASMCs were isolated from rats with or without MCT induced PAH.

MCT PASMCs [2] = experiment: pAKT expression in MCT PASMCs; type: cell-based, rat
Experimental: as §1
Tissue samples or cell samples were homogenized in lysis buffer containing 50 mM Tris-HCl, pH 7.4, 50 mM NaCl, 5 mM EDTA, 1% Triton X-100, 0.05% SDS, 50 mM NaF, 10 mM β-glycerophosphate, sodium pyrophosphate, 100 μM Na3VO4, and protease inhibitor cocktail (Calbiochem, Millipore). […] Blots were visualized using an enhanced chemi-luminescence detection system (Millipore). Samples were normalized to GAPDH (Santa Cruz; 1:10000) and quantified by densitometry.

control (CON) PASMCs = experiment: BrdU incorporation cell proliferation assay, control PASMCs; type: cell-based, rat; conditions: compared with vehicle treatment, FIG. 5
Experimental: as §1, §2, §3

human PASMCs = experiment: Western blot of protein expression in human PASMCs under in vitro hypoxia; type: cell-based
Experimental: Human PASMCs were obtained from commercial sources (Lonza). Cells were grown in SMC growth medium (5% FBS, 1 μg/ml hydrocortisone, 10 ng/ml human epidermal growth factor, 3 ng/ml basic fibroblast growth factor, 10 μg/ml heparin, 10 μg/ml gentamycin, and 0.25 μg/ml amphotericin) (Lonza) and were used between passages 4 and 7. Cells were starved in SMC medium with 0.1% FBS for 24 h before the experiment. Human PASMCs were cultured in the TGF-β 2.5 ng/ml condition for 6 hours to determine the effect of lumikine on the protein expressions.
Human PASMCs were cultured in the hypoxic condition for 24 hours to determine the effect of lumikine on the protein expressions. Hypoxia was created in an incubator: 5% CO2+94% N2+[…], 37° C. Lumikine were dissolved in culture medium at a final concentration of 100 nM.
Tissue samples or cell samples were homogenized in lysis buffer containing 50 mM Tris-HCl, pH 7.4, 50 mM NaCl, 5 mM EDTA, 1% Triton X-100, 0.05% SDS, 50 mM NaF, 10 mM β-glycerophosphate, sodium pyrophosphate, 100 μM Na3VO4, and protease inhibitor cocktail (Calbiochem, Millipore). Immunoblotting was performed using anti-lumican (Abcam; 1:2000), ant-HIF-1α(Abeam; 1:1000), anti-p-AKT, or AKT (Cell Signaling; 1:1000), and anti-p-SMAD2 (Cell Signaling; 1:1000), as primary antibodies. Secondary antibodies specific for peroxidase-conjugated anti-mouse IgG (Jackson; 1:10000) or anti-rabbit IgG (Jackson; 1:10000) were used as needed. Blots were visualized using an enhanced chemi-luminescence detection system (Millipore). Samples were normalized to GAPDH (Santa Cruz; 1:10000) and quantified by densitometry.
In this example, in vitro hypoxic (1% oxygen) model was used to evaluate the effect of the present synthetic peptide—lumikine (SEQ ID NO: 2) on pulmonary arterial smooth muscle cell (PASMCs).

hypoxia-induced PAH mice = experiment: Hypoxia-induced PAH mice: RV hypertrophy and pulmonary artery medial wall thickness; type: in vivo; conditions: for right ventricular (RV) weight (RV/LV+S ratio): hypoxia (10% O2) mice, 3 ng/kg/day, 28 days, FIG. 6 panel A
Experimental: Adult male Sprague-Dawley rats (200-250 g in body weight) were randomized assigned into two groups for treatment of 28 days after s.c. injection of saline or 60 mg/kg monocrotaline (MCT) (Sigma-Aldrich) to induce pulmonary hypertension (PH). Rats were examined after 3 weeks of treatment (on day 28). Hypoxic pulmonary vascular remodeling was induced by exposure of mice (8-week-old C57BL/6) to chronic hypoxia (10% 02) in a ventilated chamber, as described previously (Li H H et al. Am J Physiol Lung Cell Mol Physiol. 2017: ajplung 00245 2017). The chronic effects of lumikne were assessed in mice exposed to hypoxia for 28 days. Briefly, animals were kept in hypoxic conditions to develop pulmonary hypertension. […] All animal experimental protocols were reviewed and approved by the Chang Gung University IACUC. This study was carried out in strict accordance with the recommendations in the Guide for the Care and Use of Laboratory Animals of the National Institutes of Health. Housing and maintenance was provided by Chang Gung University, and all animals were fed a standard chow diet with free access to water. After sacrifice, the RV wall was separated from the LV wall and ventricular septum. Wet weight of the RV, free LV wall, and ventricular septum was determined and weighted. RV hypertrophy was expressed as the ratio of weight of the RV wall and that of the free LV wall and ventricular septum (LV+S). Fixation was performed by immersion of the lungs in a 10% paraformaldehyde solution. For paraffin embedding, the entire lungs were dissected in tissue blocks from all lobes. Sectioning at 5 μm was performed from all paraffin-embedded blocks. To assess the type of remodeling of muscular pulmonary arteries, the percentage of MWT was utilized to characterize vascular medial hypertrophy by α-SM-actin staining. Under 400× microscopic examination, MWT was defined as the distance between the internal and external elastic laminae using “ImageJ” software downloaded from the open source available from the internet. […]

O=S(=O)(NCCNC/C=C/c1ccc(Br)cc1)c1cccc2cnccc12 [H89, reference compound]
effect on lumikine inhibition of MCT PASMC proliferation (MCT PASMCs [1]; H89 with lumikine (100 nM)): reversed

lumikine: synthetic peptide X1EX2LRVANEVTLN (SEQ ID NO: 1) in which X1 is tyrosine (Y) and X2 is alanine (A) (YEALRVANEVTLN)
pAKT expression (MCT PASMCs [2]): reduced | proliferation of control PASMCs (control (CON) PASMCs): no significantly effects; also recorded: did not affect | level of lumican (human PASMCs; lumikine 100 nM, hypoxic condition 24 hours, FIG. 4 panel B): increase | level of HIF-1α (human PASMCs; lumikine 100 nM, hypoxic condition 24 hours, FIG. 4 panel C): reduction | level of pSmad3 (human PASMCs; lumikine 100 nM, hypoxic condition 24 hours, FIG. 4 panel D): reduction | level of pAKT (human PASMCs; lumikine 100 nM, hypoxic condition 24 hours, FIG. 4 panel E): reduction | Smad4 (human PASMCs; lumikine treatment, hypoxic condition, FIG. 4F): remained unaffected | serum-induced PASMC proliferation (MCT PASMCs [1]; 10% FBS): dose-dependently decrease; also recorded: inhibited significantly | right ventricular (RV) weight (RV/LV+S ratio) (hypoxia-induced PAH mice): significantly reduced | right ventricular (RV) weight (RV/LV+S ratio) (hypoxia-induced PAH mice; listed as Lumikine): reduction | medial wall thickness (MWT) of the pulmonary artery (hypoxia-induced PAH mice; hypoxia mice, 3 ng/kg/day for 21 days (days 8-28), PAs 25-100 μm, FIG. 6 panel B): significantly reduction
